Experimental data published in patent US7223792B2, “Cytotoxic annonaceous acetogenins from Annona muricata” (Advpharma Inc., priority 2001, dated 2007).
≈ marks a conversion by molar mass, not a printed value. Like-named read-outs stand apart in the source and are kept apart here.

Assays:
[1] = system: 2,2,15; experiment: three days cytotoxicity bioassay against 2,2,15; format: cell-based, human; settings: for IC50: 72 h, read-out: Cytotoxicity IC50 2,2,15
From the text: Adriamycin was used as a standard.

[2] = system: Hep G2; experiment: three days cytotoxicity bioassay against Hep G2; settings: for IC50: Homo sapiens, HepG2, 72 h, read-out: Cytotoxicity IC50 Hep G2; for Cytotoxicity IC50 Hep G2: human hepatoma cell line Hep G2, three days bioassay
[3] = human hepatoma cell line 2,2,15, three days bioassay

Compound | IC50 [2] [µg/mL] | Cytotoxicity IC50 2,2,15 [1, 3] [µg/mL] | Cytotoxicity IC50 Hep G2 [2] [µg/mL] | other results
COc1cccc2c1C(=O)c1c(O)c3c(c(O)c1C2=O)C[C@@](O)(C(=O)CO)C[C@@H]3O[C@H]1C[C@H](N)[C@H](O)[C@H](C)O1 [Adriamycin, reference compound] | 0.241 (≈ 0.443 µM) |  |  | IC50 [1, 3]: 0.45 µg/mL (≈ 0.828 µM)
CCCCCCCCCCCC[C@@H](O)[C@H]1CC[C@@H]([C@@H](O)CCCCC(=O)CCCCCCCC2=C[C@H](C)OC2=O)O1 [Corossolone (12), Corossolone, reference compound] | 0.48 (≈ 0.829 µM) |  |  | IC50 ([1]; Homo sapiens): 0.284 µg/mL (≈ 0.491 µM)
CCCCCCCCCCCCCC[C@@H](O)[C@H]1CC[C@H]([C@H](O)CC[C@H](O)CCCCCCCC2=C[C@H](C)OC2=O)O1 [Longifolicin (10), Longifolicin, reference compound] | 0.000404 (≈ 0.000695 µM) |  |  | IC50 [1, 3]: 0.0049 µg/mL (≈ 0.00844 µM)
CCCCCC(O)C(O)CCCCCC[C@@H](O)[C@H]1CC[C@H](CCCCCCCCCC[C@@H](O)CC2=C[C@H](C)OC2=O)O1 (some centres unmarked) [Muricin A (1), Muricin A] |  | 0.00513 | 5.04 | times more potent than muricin B against Hep G2 ([2]; muricin A (4R-OH) compared with muricin B (4S-OH), Hep G2): 2.5 times
CCCCCC(O)C(O)CCCCCC[C@H](O)[C@@H]1CC[C@H](CCCCCCCCCC[C@H](O)CC2=C[C@H](C)OC2=O)O1 (some centres unmarked) [Muricin B (2), Muricin B] |  | 0.00429 | 1.78 | 
CCCCCCCC(O)C(O)CC[C@H](O)[C@@H]1CC[C@H](CCCCCCCCCCCC[C@@H](O)CC2=C[C@H](C)OC2=O)O1 (some centres unmarked) [Muricin C (3), Muricin C] |  | 0.00387 | 0.499 | 
CCCCCCCC(O)C(O)CC[C@H](O)[C@@H]1CC[C@@H](CCCCCCCCCC[C@@H](O)CC2=C[C@H](C)OC2=O)O1 (some centres unmarked) [Muricin D (4), Muricin D] |  | 0.048 | 0.00066 | 
CCCCC(O)C(O)C/C=C\CC[C@H](O)[C@@H]1CC[C@@H](CCCCCCCCCCCC[C@@H](O)CC2=C[C@H](C)OC2=O)O1 (some centres unmarked) [Muricin F (6), Muricin F] |  | 0.00386 | 0.0428 | cytotoxicity compared with muricin C against 2,2,15 ([1]; comparison in words, 2,2,15): more cytotoxic than muricin C; cytotoxicity compared with muricin C against Hep G2 ([2]; comparison in words, Hep G2): more cytotoxic than muricin C
Corossolin [Corossolin (11), reference compound] |  | 0.234 |  | 
